Test results: ChEMBL document CHEMBL1201862, “PubChem BioAssay data set” (2004)
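48-hour exposure; five concentrations; linearly interpolated endpoints. GI50 is the concentration that inhibits growth by half.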 Activity calls are given as the source filed them. Rule as the data show it: active = GI50 up to about 1.1 µM and inactive = higher.

Experiments:
Experiment in all cases: growth of human tumour cells (NCI), 48 h
T47D = test system: T47D
MCF7 = test system: MCF7
CCRF-CEM = test system: CCRF-CEM
SN12C = test system: SN12C
SK-OV-3 = test system: SK-OV-3
SR = test system: SR
M14 = test system: M14
MDA-MB-231 = test system: MDA-MB-231
CAKI-1 = test system: CAKI-1
SNB-75 = test system: SNB-75
Malme-3M = test system: Malme-3M
OVCAR-8 = test system: OVCAR-8
SF-268 = test system: SF-268
Hs-578T = test system: Hs-578T
ACHN = test system: ACHN
UACC-257 = test system: UACC-257
SK-MEL-5 = test system: SK-MEL-5
RPMI-8226 = test system: RPMI-8226
RXF 393 = test system: RXF 393

Measured: GI50

COc1cc2c3cc1Oc1c(OC)c(OC)cc4c1C(Cc1ccc(O)c(c1)Oc1ccc(cc1)CC3N(C)CC2)N(C)CC4 (stereo not drawn)
inactive: T47D 27.8 µM | MCF7 45.9 µM | CCRF-CEM 17.2 µM | SN12C 19.1 µM | SK-OV-3 29.6 µM | SR 2.09 µM | M14 33.7 µM | MDA-MB-231 35.6 µM | CAKI-1 17.9 µM | SNB-75 23.3 µM | Malme-3M 59.2 µM | OVCAR-8 33.6 µM | SF-268 24.3 µM | Hs-578T 24.2 µM | ACHN 17.3 µM | UACC-257 34.1 µM | SK-MEL-5 20 µM

COc1cc(/C=N\NC(=O)C[N+](C)(C)C)cc(OC)c1OC
inactive: T47D > 10 µM | MCF7 > 10 µM | CCRF-CEM > 10 µM | SN12C > 10 µM | SK-OV-3 > 10 µM | SR > 10 µM | M14 > 10 µM | MDA-MB-231 > 10 µM | CAKI-1 > 10 µM | SNB-75 > 10 µM | Malme-3M > 10 µM | OVCAR-8 > 10 µM | SF-268 > 10 µM | Hs-578T > 10 µM | RPMI-8226 > 10 µM | ACHN > 10 µM | UACC-257 > 10 µM | SK-MEL-5 > 10 µM

O=C1CSC(c2cccc(Cl)c2)N1c1ccc(-n2c(-c3ccccc3)nc3ccccc3c2=O)cc1 (stereo not drawn)
inactive: T47D 10 µM | MCF7 30.3 µM | CCRF-CEM 40 µM | SN12C > 100 µM | SK-OV-3 88.7 µM | SR 7.66 µM | MDA-MB-231 21.1 µM | CAKI-1 45.3 µM | Malme-3M > 100 µM | OVCAR-8 79.8 µM | SF-268 8.07 µM | Hs-578T 39.3 µM | RPMI-8226 52.4 µM | ACHN 79.3 µM | UACC-257 > 100 µM | SK-MEL-5 47 µM

Cc1ccc(/N=N/C(=NNC(=O)c2ccc(C)cc2)c2ccc(N(C)C)cc2)cc1
inactive: T47D 71.3 µM | MCF7 20 µM | SN12C 23.2 µM | SK-OV-3 23.7 µM | SR 17.9 µM | M14 24.8 µM | MDA-MB-231 50.2 µM | CAKI-1 23 µM | OVCAR-8 31.8 µM | SF-268 38.5 µM | Hs-578T 28.1 µM | RPMI-8226 22.3 µM | ACHN 66.4 µM | UACC-257 21.9 µM | SK-MEL-5 15.5 µM

CCN(CC)P(=O)(c1ccc2c(c1)OCCOCCOCCOCCO2)N(CC)CC
inactive: T47D > 100 µM | MCF7 > 100 µM | CCRF-CEM > 100 µM | SN12C > 100 µM | SK-OV-3 > 100 µM | SR > 100 µM | M14 > 100 µM | MDA-MB-231 > 100 µM | CAKI-1 > 100 µM | SNB-75 > 100 µM | Malme-3M > 100 µM | OVCAR-8 > 100 µM | SF-268 > 100 µM | Hs-578T > 100 µM | RPMI-8226 > 100 µM | ACHN > 100 µM | SK-MEL-5 > 100 µM

CCOP(=O)(OCC)/C(C#N)=C/c1nccn1C
inactive: T47D > 100 µM | MCF7 > 100 µM | CCRF-CEM > 100 µM | SN12C > 100 µM | SR > 100 µM | M14 > 100 µM | MDA-MB-231 > 100 µM | SNB-75 > 100 µM | OVCAR-8 > 100 µM | SF-268 > 100 µM | Hs-578T > 100 µM | RPMI-8226 > 100 µM | ACHN > 100 µM | UACC-257 > 100 µM

CCCCCCCCCCCCCCCCS(=O)(=O)c1ccc(NN)cc1
inactive: T47D > 10 µM | MCF7 > 10 µM | CCRF-CEM 1.63 µM | SN12C > 10 µM | SK-OV-3 > 10 µM | SR 2.77 µM | M14 > 10 µM | MDA-MB-231 > 10 µM | CAKI-1 > 10 µM | Malme-3M > 10 µM | OVCAR-8 6.53 µM | SF-268 9.38 µM | Hs-578T 7.96 µM | RXF 393 > 10 µM | RPMI-8226 5.33 µM | ACHN > 10 µM | UACC-257 > 10 µM | SK-MEL-5 > 10 µM

O=C(Cc1nc2ccc(C(=O)c3ccccc3)cc2nc1O)C(=O)Nc1ccc(Br)cc1
inactive: T47D > 100 µM | MCF7 > 100 µM | SN12C > 100 µM | SK-OV-3 > 100 µM | M14 > 100 µM | MDA-MB-231 > 100 µM | CAKI-1 40.1 µM | SNB-75 38 µM | Malme-3M > 100 µM | OVCAR-8 96.2 µM | SF-268 > 100 µM | Hs-578T 53 µM | RXF 393 > 100 µM | RPMI-8226 99.3 µM | ACHN 71.8 µM | UACC-257 > 100 µM | SK-MEL-5 > 100 µM

Cc1cc2nc3c(N)nn(CCCN(C)C)c3nc2cc1C
inactive: T47D > 100 µM | MCF7 33.4 µM | SN12C > 100 µM | SK-OV-3 > 100 µM | M14 30.1 µM | MDA-MB-231 60.5 µM | CAKI-1 > 100 µM | SNB-75 > 100 µM | OVCAR-8 83 µM | SF-268 > 100 µM | Hs-578T > 100 µM | RXF 393 > 100 µM | RPMI-8226 > 100 µM | ACHN 60.3 µM | UACC-257 97.5 µM | SK-MEL-5 > 100 µM

CC1=C/C(=N\OCC(=O)O)CC(c2ccc(C(C)C)cc2)C1 (stereo not drawn)
inactive: T47D 65.3 µM | MCF7 52.5 µM | CCRF-CEM 34.4 µM | SN12C 60.1 µM | SK-OV-3 > 100 µM | SR 28.1 µM | M14 35.2 µM | MDA-MB-231 54.8 µM | CAKI-1 > 100 µM | Malme-3M 63.8 µM | OVCAR-8 27.9 µM | Hs-578T > 100 µM | RXF 393 > 100 µM | RPMI-8226 23.2 µM | UACC-257 43 µM | SK-MEL-5 17.5 µM

COc1cc(-c2oc3c(OC)c(O)c(OC)c(O)c3c(=O)c2OC)ccc1O
inactive: T47D 20.3 µM | MCF7 28.9 µM | CCRF-CEM 35.2 µM | SN12C 59.8 µM | SK-OV-3 17.9 µM | SR 41.5 µM | M14 10.4 µM | MDA-MB-231 44.2 µM | CAKI-1 24.8 µM | Malme-3M 34.7 µM | OVCAR-8 68.5 µM | Hs-578T 14.9 µM | RPMI-8226 26.1 µM | ACHN 41.9 µM | UACC-257 60.5 µM | SK-MEL-5 29.8 µM

NC1=NCCN1CC(=O)O [CYCLOCREATINE]
inactive: T47D > 1000 µM | MCF7 > 1000 µM | CCRF-CEM > 1000 µM | SN12C > 1000 µM | SK-OV-3 > 1000 µM | SR > 1000 µM | M14 > 1000 µM | MDA-MB-231 > 1000 µM | CAKI-1 > 10000 µM | Malme-3M > 1000 µM | OVCAR-8 > 1000 µM | SF-268 4990 µM | Hs-578T 4040 µM | RXF 393 > 1000 µM | RPMI-8226 > 1000 µM | ACHN > 1000 µM | UACC-257 > 1000 µM | SK-MEL-5 > 1000 µM
